Data taken from patent US6399577B1, “Compositions and methods using myelin-associated glycoprotein (MAG) and inhibitors thereof” (Research Foundation of CUNY, Hunter College, priority 1995, dated 2002).
Each block holds one molecule with its values, some of them ahead of it.

Assays:
MAG [1] = target: T1, MAG (Rattus norvegicus, UniProt P07722); assay: Neurite outgrowth of DRG neurons on MAG-expressing and control CHO cells: reversal of promotion by MAG; format: cell-based; conditions: for % Reversal of Promotion: PND 2 DRG neurons; for effect on the promotion of neurite outgrowth by MAG: increasing concentrations of sugar, text summary of TABLE 2
T1 construct: host or cells: dhfr-deficient CHO cells (CHO-MAG2)
T1 sequence (P07722 20-626): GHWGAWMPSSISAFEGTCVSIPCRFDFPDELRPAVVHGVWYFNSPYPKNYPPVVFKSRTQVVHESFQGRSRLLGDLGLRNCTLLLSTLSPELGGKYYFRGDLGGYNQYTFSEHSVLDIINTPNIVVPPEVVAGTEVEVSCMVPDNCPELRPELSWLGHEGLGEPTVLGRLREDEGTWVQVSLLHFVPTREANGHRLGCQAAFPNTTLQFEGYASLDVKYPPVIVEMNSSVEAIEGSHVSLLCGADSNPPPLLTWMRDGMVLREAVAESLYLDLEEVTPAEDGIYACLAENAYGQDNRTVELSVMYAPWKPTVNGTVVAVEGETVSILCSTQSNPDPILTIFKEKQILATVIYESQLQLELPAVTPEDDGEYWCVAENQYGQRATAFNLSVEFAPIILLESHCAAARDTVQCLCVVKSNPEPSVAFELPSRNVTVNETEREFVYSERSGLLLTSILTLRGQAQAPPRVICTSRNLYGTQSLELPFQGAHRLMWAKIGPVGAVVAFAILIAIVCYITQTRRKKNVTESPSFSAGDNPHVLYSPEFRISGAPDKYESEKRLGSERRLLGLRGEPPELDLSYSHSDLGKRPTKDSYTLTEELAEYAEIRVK
Description: (§1) Confluent monolayers of control and MAG-expressing CHO cells were established over a 24-hour (h) period in individual chambers of an 8-well tissue culture slide (Lab-Tek). […] Culture medium was SATO containing 2% FCS. Where indicated, 20 mU of VCS was included throughout the coculture period (see Example 4), or monolayers were incubated with small oligosaccharides for one hour before adding the neuronal cell suspension and included throughout the coculture period. After periods of time as indicated, the cocultures were fixed for 30 min with 4% paraformaldehyde and permeabilized with ice-cold methanol for 2 min. The cells were then blocked for 30 min with DMEM containing 10% FCS and incubated for 2 h with a rabbit polyclonal antibody against the neuronal marker GAP43 (1:4000). Cells were washed three times with PBS-BSA (2%) and then incubated for 30 min at room temperature with a biotinylated donkey anti-rabbit Ig (1:300, Amersham), washed three times, and incubated with streptavidin-conjugated Texas Red (1:300, Amersham) for 30 min. After three more washes, the slides were mounted in Permfluor (Baxter) and viewed with a Zeiss fluorescent microscope. The length of the longest neurite for each GAP43-positive neuron was determined using the Biological Detection System image analysis program (Pittsburgh).
The transfected CHO cell assay described in Example 2 may also be used to screen and identify agents that alter neurite growth properties of a particular neuronal cell type and age in a MAG-dependent fashion. Neurite outgrowth was compared for cerebellar (TABLE 1) and DRG (TABLE 2) neurons from PND 2 animals, grown on MAG-expressing and control CHO cells as described in Example 2. Where indicated, small sialic acid-bearing sugars were included in the co-cultures at increasing concentrations. 100% inhibition was taken as the difference in length of neurites on control and MAG-expressing CHO cells. Results are the mean of at least two experiments, with at least 150 neurons measured for each experiment. DD-NANA=2,3-dideoxy sialic acid; SL=sialo 2,3-α lactose.
Single cell suspensions of different neurons at various postnatal ages were washed and resuspended in phosphate-buffered saline (PBS). Approximately 2×10^6 cells were incubated with 50 mU of Vibrio cholera sialidase (VCS, Calbiochem) (a neuraminidase) in a final volume of 0.5 ml for 2 hours at 37° C. Neurons were washed with PBS and resuspended in SATO medium containing 2% FCS for neurite outgrowth experiments, or in PBS for neurite binding assays.

MAG [2] = target: T2, MAG (Rattus norvegicus, UniProt P07722); assay: Radiolabelled MAG-Fc binding to cerebellar neurons; conditions: PND1 cerebellar neurons; antibody 5 μg/ml or sialidase treatment of neurons before binding
T2 construct: consisting of the extracellular domain of MAG fused to the Fc region of IgG (MAG-Fc); host or cells: COS cells
T2 sequence (P07722 20-516 limits assumed): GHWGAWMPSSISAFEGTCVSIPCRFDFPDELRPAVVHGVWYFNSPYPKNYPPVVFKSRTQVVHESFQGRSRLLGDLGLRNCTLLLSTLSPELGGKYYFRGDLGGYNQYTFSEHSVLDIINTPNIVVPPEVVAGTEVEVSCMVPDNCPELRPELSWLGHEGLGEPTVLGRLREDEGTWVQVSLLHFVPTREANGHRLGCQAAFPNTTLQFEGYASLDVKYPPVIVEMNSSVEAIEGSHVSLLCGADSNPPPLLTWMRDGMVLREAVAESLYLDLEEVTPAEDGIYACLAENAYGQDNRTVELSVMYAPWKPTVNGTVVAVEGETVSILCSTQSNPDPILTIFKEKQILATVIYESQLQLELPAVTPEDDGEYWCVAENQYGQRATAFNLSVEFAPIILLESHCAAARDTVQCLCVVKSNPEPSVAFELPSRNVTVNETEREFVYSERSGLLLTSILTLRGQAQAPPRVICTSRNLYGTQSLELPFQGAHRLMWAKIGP
Description: FIG. 4. sialic acid-dependent Binding of MAG to Cerebellar and DRG Neurons. Radiolabelled MAG-Fc (solid bars) was allowed to bind to PND 1 cerebellar and DRG neurons. Incubations were also carried out in the presence of 5 μg/ml of MAG 513 monoclonal antibody (dark hatched bars) or with neurons that had been desialyated (speckled bars). Each experiment was carried out in quadruplicate. The results are the mean of 3 experiments.
MAG binds to all types of neurons tested in a sialic acid-dependent fashion (Kelm et al., Curr. Biol., 4, pp. 965-72 (1994)). […] Sialidase is an enzyme which removes sialic acid from glycoconjugates.

cerebellar neurons [3] = conditions: Mukhopadhyay et al.; cited from earlier work
cerebellar neurons [4] = assay: Neurite outgrowth of cerebellar neurons on MAG-expressing versus control CHO cells; format: cell-based, rat; conditions: all ages tested, four MAG-expressing CHO cell lines
Description: FIG. 1. Inhibition of Neurite outgrowth from Cerebellar Neurons by MAG. Cerebellar neurons from post-natal day (PND) 1, 4 and 7 were grown overnight on a monolayer of MAG-expressing (clear bars) or control transfected CHO cells (hatched bars). Neurons were stained for GAP-43 antigen and neurite length was measured and the average […] length calculated from at least 150 measurements (+/−SEM).
as §1, with “Cells were washed three times with PBS-BSA (2%) and then incubated for 30 min at room temperature with a biotinylated donkey anti-rabbit Ig (1:300, Amersham), washed three times, and incubated with streptavidin-conjugated Texas Red (1:300, Amersham) for 30 min. After three more washes, the slides were mounted in Permfluor (Baxter) and viewed with a Zeiss fluorescent microscope.” left out

DRG neurons = assay: Neurite outgrowth of DRG neurons on MAG-expressing versus control CHO cells; format: cell-based, rat
Description: FIG. 2. Effect of MAG on Neurite Outgrowth from DRG Neurons of Different Ages. […] 1.
as §1

[5] = system: retinal ganglion (RG), hippocampal (HN), motor neurons (MN) and superior-cervical ganglion (SCG); assay: Neurite outgrowth of different neuronal cell types on MAG-expressing versus control CHO cells; format: cell-based, rat; conditions: neurons from one-day old rats (PND1)
Description: FIG. 3. Effect of MAG on Neurite Outgrowth from Different Neuronal Cell Types. Various neurons from PND1 animals were isolated and grown overnight on MAG-expressing (dark hatched) or control (light hatched) CHO cells. Average neurite length was calculated as described in FIG. 1.
as §1, with “Cells were washed three times with PBS-BSA (2%) and then incubated for 30 min at room temperature with a biotinylated donkey anti-rabbit Ig (1:300, Amersham), washed three times, and incubated with streptavidin-conjugated Texas Red (1:300, Amersham) for 30 min. After three more washes, the slides were mounted in Permfluor (Baxter) and viewed with a Zeiss fluorescent microscope.” left out

[6] = 1 mM sugar, MAG-expressing CHO cells

Molecule: sialidase: Vibrio cholera sialidase (a neuraminidase), enzyme which removes sialic acid from glycoconjugates
effect on promotion of axonal outgrowth by MAG (MAG [1]; newborn (PND1) DRG neurons desialyated with sialidase): completely abolished
effect on binding of MAG to cerebellar neurons (MAG [2]): abolished

% Reversal of Promotion (MAG [1]; [6]): 0%
% Reversal of Promotion (MAG [1]; 10 mM sugar, MAG-expressing CHO cells): 51%
% Reversal of Promotion (MAG [1]; 20 mM sugar, MAG-expressing CHO cells): 97%
% Reversal of Promotion (MAG [1]; 20 mM sugar, control CHO cells): 0%
Molecule: CC(=O)N[C@H]1[C@H]([C@H](O)[C@H](O)CO)OC(C(=O)O)=C[C@@H]1O [DD NANA, 2,3-dideoxy sialic acid]
effect on the promotion of neurite outgrowth by MAG (MAG [1]): abolished the promotion of neurite outgrowth by MAG completely

% Reversal of Promotion (MAG [1]; [6]): 0%
% Reversal of Promotion (MAG [1]; 5 mM sugar, MAG-expressing CHO cells): 96%
% Reversal of Promotion (MAG [1]; 18 mM sugar, MAG-expressing CHO cells): 98%
% Reversal of Promotion (MAG [1]; 18 mM sugar, control CHO cells): 0%
Molecule: CC(=O)N[C@H]1[C@H]([C@H](O)[C@H](O)CO)O[C@@](O[C@H]2[C@@H](O)[C@@H](CO)O[C@@H](O[C@H]3[C@H](O)[C@@H](O)C(O)O[C@@H]3CO)[C@@H]2O)(C(=O)O)C[C@@H]1O (stereo partly drawn) [SL, sialo 2,3-α lactose]
effect on the promotion of neurite outgrowth by MAG (MAG [1]): abolished the promotion of neurite outgrowth by MAG completely

B1: Po: another myelin protein expressed by CHO cells, specificity control (protein, UniProt P25189 30-248, looked up)
Myelin protein P0: IVVYTDREVHGAVGSRVTLHCSFWSSEWVSDDISFTWRYQPEGGRDAISIFHYAKGQPYIDEVGTFKERIQWVGDPRWKDGSIVIHNLDYSDNGTFTCDVKNPPDIVGKTSQVTLYVFEKVPTRYGVVLGAVIGGVLGVVLLLLLLFYVVRYCWLRRQAALQRRLSAMEKGKLHKPGKDASKRGRQTPVLYAMLDHSRSTKAVSEKKAKGLGESRKDKK
effect on neurite outgrowth of CHO cells expressing the protein (cerebellar neurons [3]): lack of effect

B2: MAG: myelin-associated glycoprotein expressed on the surface of transfected CHO cells (protein, UniProt P07722 20-626, looked up)
Myelin-associated glycoprotein: T1 sequence (P07722 20-626)
inhibition of neurite outgrowth compared to control cells (cerebellar neurons [4]): at least 70%
inhibition of neurite outgrowth (DRG neurons; DRG neurons from adult rats): about 40%
neurite length on MAG-expressing cells compared to control cells (DRG neurons; DRG neurons from two-day old rats): almost twice as long
effect on neurite growth [5]: potent inhibitor of neurite growth in all cell types tested
